Tests used:
[1] = target: T1, 5-hydroxytryptamine receptor 1A (Rattus norvegicus, UniProt P19327); experiment: Binding affinity towards 5-hydroxytryptamine 1A receptor in rat hippocampus with [3H]8-OH-DPAT; type: tissue-based
T1 sequence (P19327 whole entry): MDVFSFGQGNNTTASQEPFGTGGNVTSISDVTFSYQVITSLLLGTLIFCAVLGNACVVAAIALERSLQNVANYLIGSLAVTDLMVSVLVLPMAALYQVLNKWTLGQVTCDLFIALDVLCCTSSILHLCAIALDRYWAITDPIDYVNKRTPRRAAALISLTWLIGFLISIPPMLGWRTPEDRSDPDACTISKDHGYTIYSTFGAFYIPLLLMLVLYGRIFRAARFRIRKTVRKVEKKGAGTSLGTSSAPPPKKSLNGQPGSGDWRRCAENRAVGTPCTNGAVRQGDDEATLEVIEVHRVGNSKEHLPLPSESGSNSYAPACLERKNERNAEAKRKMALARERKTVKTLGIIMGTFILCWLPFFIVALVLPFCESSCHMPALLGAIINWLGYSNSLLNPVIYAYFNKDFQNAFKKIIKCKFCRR

[2] = target: T2, Adrenergic receptor alpha-1 (Homo sapiens, UniProt P35348+P25100+P35368); experiment: Binding affinity against alpha-1 adrenoceptor; type: protein assay
T2 sequence (P35348 whole entry): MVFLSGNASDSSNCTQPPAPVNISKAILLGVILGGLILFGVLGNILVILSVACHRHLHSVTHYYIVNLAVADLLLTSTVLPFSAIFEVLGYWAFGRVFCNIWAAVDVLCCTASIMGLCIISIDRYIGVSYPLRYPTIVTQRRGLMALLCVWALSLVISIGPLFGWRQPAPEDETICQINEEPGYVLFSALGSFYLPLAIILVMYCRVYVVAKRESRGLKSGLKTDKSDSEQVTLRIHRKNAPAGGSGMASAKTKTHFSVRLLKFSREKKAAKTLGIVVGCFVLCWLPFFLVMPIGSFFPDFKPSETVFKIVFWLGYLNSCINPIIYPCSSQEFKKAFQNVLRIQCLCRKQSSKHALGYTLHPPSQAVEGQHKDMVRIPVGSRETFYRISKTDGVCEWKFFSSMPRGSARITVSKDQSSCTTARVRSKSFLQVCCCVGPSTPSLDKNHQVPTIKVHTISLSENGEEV
T2 sequence (P25100 whole entry): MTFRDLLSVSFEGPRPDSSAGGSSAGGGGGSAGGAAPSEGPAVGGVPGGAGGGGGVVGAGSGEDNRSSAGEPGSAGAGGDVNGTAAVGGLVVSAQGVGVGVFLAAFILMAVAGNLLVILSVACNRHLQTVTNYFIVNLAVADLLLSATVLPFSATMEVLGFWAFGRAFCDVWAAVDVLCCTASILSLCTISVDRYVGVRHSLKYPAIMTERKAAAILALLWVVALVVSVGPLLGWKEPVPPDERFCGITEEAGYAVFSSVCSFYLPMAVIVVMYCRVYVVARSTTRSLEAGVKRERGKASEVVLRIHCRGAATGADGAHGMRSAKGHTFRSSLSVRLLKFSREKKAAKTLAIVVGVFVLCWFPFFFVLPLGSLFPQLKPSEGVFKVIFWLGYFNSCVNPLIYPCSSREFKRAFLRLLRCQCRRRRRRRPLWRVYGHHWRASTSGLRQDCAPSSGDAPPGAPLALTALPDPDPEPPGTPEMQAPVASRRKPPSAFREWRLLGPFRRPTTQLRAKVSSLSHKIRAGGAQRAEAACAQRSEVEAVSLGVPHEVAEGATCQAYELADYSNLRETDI
T2 sequence (P35368 whole entry): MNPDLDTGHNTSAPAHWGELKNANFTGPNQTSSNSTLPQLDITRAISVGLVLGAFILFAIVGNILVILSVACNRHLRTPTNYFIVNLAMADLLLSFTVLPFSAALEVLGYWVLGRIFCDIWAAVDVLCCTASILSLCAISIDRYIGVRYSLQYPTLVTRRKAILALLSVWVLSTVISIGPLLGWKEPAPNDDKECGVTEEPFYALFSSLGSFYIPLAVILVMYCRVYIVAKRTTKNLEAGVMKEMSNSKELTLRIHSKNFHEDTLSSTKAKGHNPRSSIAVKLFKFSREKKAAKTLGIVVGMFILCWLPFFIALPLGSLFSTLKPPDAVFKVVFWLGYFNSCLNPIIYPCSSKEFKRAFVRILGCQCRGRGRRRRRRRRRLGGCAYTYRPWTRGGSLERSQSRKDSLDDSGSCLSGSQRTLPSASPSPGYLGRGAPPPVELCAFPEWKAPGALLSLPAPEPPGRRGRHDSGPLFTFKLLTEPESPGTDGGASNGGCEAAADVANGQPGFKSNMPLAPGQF

D(1A) dopamine receptor = D(1A) dopamine receptor (Homo sapiens, UniProt P21728); experiment: Binding affinity against dopamine receptor D1
[3] = target: T3, Muscarinic acetylcholine receptor M2 (Homo sapiens, UniProt P08172); experiment: Binding affinity against muscarinic M2 receptor
T3 sequence (P08172 whole entry): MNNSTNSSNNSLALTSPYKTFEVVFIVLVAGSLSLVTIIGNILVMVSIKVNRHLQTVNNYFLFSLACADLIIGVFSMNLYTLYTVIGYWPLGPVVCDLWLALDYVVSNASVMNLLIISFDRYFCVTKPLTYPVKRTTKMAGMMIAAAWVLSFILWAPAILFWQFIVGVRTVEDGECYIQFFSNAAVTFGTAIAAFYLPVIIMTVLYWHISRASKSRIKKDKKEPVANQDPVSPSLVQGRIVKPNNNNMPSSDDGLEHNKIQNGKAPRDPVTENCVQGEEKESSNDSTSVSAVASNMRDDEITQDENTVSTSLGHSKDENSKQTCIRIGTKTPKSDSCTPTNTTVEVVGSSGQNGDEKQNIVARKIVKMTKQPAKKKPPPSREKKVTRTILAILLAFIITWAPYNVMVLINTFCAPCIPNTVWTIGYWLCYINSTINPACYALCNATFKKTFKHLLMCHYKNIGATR

[4] = target: T4, Muscarinic acetylcholine receptor M1 (Homo sapiens, UniProt P11229); experiment: Binding affinity against muscarinic M1 receptor
T4 sequence (P11229 whole entry): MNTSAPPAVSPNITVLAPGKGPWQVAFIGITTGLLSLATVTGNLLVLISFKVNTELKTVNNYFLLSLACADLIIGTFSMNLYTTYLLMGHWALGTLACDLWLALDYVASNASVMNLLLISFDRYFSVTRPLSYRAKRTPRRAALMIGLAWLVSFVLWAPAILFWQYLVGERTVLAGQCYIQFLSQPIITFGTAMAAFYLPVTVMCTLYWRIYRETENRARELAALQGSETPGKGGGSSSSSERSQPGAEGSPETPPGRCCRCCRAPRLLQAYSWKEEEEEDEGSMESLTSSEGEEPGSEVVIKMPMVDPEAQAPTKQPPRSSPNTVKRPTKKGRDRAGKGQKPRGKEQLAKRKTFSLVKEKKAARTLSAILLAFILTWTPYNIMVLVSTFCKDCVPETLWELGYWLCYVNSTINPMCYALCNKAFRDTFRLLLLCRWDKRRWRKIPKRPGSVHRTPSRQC

Oryctolagus cuniculus = species on record: Oryctolagus cuniculus; experiment: Tested in vitro for its ability to block 5-HT2A induced contraction of rabbit isolated aorta; type: functional

Chain of D(1A) dopamine receptor (P21728 whole entry): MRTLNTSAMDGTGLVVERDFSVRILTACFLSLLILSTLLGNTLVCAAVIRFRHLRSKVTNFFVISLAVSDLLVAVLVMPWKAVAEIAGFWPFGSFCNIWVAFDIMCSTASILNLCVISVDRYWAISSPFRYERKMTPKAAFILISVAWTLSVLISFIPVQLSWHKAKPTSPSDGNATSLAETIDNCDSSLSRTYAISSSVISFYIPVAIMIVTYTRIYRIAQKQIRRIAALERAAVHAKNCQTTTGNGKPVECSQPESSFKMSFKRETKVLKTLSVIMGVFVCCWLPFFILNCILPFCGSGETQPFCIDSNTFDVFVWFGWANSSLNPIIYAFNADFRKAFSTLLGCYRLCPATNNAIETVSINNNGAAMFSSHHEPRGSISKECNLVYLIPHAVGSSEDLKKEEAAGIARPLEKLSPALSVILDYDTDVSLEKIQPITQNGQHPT

## COc1ccc(NC(=O)c2ccc(-c3ccc(-c4noc(C)n4)cc3C)cc2)cc1N1CCN(C)CC1 [GR-127935]
[1]
  Ki: 0.316 µM
[2]
  Log Ki: > -6
D(1A) dopamine receptor
  Ki: > 10 µM
[3]
  Ki: > 1 µM
[4]
  Ki: > 1 µM
Oryctolagus cuniculus
  pKB: 6.4

Reference: ChEMBL document CHEMBL1127581, “Evolution of a novel series of [(N,N-dimethylamino)propyl]- and piperazinylbenzanilides as the first selective 5-HT1D antagonists” (J Med Chem, 1994)
